Test results reported in patent US20020151581A1, “Glucose and lipid lowering compounds” (priority 1998, published 2002).

Key:
Type in all cases: biochemical
Settings in all cases: test compound 100 μM
[1] = biological target: T1, hormone-sensitive lipase derived from a preparation of 3T3-cell lysate (Mus musculus, UniProt P54310); assay: Inhibition of hormone-sensitive lipase from 3T3-L1 cell lysate on glycerol-stabilized triolein
T1 construct: hormone-sensitive lipase derived from a preparation of 3T3-cell lysate; endogenous in cells; host or cells: 3T3-L1 cell lysate
T1 sequence (P54310 1-759): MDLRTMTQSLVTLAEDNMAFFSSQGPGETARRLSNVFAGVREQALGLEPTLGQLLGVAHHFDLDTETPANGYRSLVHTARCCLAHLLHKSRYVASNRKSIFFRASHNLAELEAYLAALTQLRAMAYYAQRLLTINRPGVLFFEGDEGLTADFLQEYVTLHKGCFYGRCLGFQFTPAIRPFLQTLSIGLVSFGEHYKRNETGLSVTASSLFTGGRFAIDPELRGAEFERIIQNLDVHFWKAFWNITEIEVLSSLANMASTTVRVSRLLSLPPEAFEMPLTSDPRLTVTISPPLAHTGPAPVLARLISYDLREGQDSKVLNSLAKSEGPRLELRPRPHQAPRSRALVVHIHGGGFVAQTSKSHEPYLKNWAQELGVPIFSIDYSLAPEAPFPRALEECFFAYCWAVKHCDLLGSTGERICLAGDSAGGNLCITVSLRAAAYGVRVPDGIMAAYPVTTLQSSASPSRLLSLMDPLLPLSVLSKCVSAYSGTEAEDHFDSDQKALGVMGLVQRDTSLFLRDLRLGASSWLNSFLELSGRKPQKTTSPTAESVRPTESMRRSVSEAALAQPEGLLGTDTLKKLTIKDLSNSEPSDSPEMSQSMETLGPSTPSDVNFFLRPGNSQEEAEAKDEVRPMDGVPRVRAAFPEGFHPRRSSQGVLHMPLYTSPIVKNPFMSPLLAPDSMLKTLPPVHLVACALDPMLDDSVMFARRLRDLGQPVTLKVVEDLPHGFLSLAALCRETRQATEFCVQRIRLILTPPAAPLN
Method: Recombinant hormone-sensitive lipase protein isolated from a bacterial expression vector was pre-incubated with a compound of the invention (e.g., 100 μM) prior to the addition of substrate, emulsified triolein phosphatidylcholine/phosphatidylinositol (PC/PI), to initiate the reaction. At various time points, aliquots of the reaction were taken, and the level of glycerol used as an index of enzyme activity. Pharmacological specificity is determined by incubating test compound with other mammalian and non-mammalian lipase enzyme systems to assess inhibition of activity. The assay was conducted using triolein concentrations from 42 μM to 835 μM.
In a similar manner to that described in Example 4 above, 2α-benzoyloxy-4,5,7,8,11αH-eudesman-8,12-olide at 100 μM was evaluated for ability to activity of recombinant hormone-sensitive lipase and hormone-sensitive lipase derived from a preparation of 3T3-cell lysate on glycerol-stabilized triolein.

lipoprotein lipase = biological target: T2, lipoprotein lipase (Homo sapiens, UniProt P06858); assay: Inhibition of lipoprotein lipase, glycerol stabilized triolein substrate
T2 sequence (P06858 28-475): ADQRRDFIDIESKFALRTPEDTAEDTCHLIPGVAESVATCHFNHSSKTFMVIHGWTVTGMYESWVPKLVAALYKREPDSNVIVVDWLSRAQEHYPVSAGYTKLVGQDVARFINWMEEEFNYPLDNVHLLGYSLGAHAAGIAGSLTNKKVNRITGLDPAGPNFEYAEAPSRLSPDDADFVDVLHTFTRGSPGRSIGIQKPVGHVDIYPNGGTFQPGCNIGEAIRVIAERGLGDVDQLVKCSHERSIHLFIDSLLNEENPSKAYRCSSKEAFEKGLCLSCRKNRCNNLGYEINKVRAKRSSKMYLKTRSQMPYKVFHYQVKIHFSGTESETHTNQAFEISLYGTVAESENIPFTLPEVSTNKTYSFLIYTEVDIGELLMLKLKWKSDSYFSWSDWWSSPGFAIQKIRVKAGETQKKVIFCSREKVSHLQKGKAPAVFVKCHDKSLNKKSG

hepatic lipase = biological target: T3, hepatic lipase (Homo sapiens, UniProt P11150); assay: Inhibition of hepatic lipase, glycerol stabilized triolein substrate; design: Pur. Hepatic Lipase + test compound (enzyme activity): unit not given beside the values
T3 sequence (P11150 23-499): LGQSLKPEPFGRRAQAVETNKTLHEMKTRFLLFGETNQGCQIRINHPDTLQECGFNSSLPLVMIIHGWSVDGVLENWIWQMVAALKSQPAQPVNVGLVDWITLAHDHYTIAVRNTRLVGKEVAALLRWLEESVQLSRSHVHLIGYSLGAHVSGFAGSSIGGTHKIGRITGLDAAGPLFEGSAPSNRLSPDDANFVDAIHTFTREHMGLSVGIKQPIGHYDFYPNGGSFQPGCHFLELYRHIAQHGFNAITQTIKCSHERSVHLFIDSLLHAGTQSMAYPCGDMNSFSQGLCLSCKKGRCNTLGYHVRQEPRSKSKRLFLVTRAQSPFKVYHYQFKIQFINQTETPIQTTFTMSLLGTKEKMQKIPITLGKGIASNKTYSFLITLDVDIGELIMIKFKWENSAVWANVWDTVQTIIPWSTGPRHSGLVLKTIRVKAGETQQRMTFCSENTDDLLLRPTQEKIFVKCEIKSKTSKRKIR

- inhibition at 100 µM ([1]; triolein 30 μM): 63%
- inhibition at 100 µM ([1]; triolein 67 μM): 56%
- inhibition at 100 µM ([1]; triolein 100 μM): 51%
- inhibition at 100 µM ([1]; triolein 201 μM): 41%
- inhibition at 100 µM ([1]; triolein 400 μM): 38%
- inhibition at 100 µM ([1]; triolein 601 μM): 30%
- inhibition at 100 µM ([1]; triolein 800 μM): 18%
- inhibition at 100 µM ([1]; triolein 1000 μM): 15%
- inhibition of lipoprotein lipase (in words) (lipoprotein lipase): failed to significantly inhibit
- Lipoprotein Lipase + test compound (enzyme activity) (lipoprotein lipase; triolein substrate 30 μM): 0.7
- Lipoprotein Lipase + test compound (enzyme activity) (lipoprotein lipase; triolein substrate 67 μM): 1.8
- Lipoprotein Lipase + test compound (enzyme activity) (lipoprotein lipase; triolein substrate 134 μM): 4.9
- Lipoprotein Lipase + test compound (enzyme activity) (lipoprotein lipase; triolein substrate 264 μM): 10.3
- Lipoprotein Lipase + test compound (enzyme activity) (lipoprotein lipase; triolein substrate 1000 μM): 67.4
- inhibition of hepatic lipase (in words) (hepatic lipase): failed to significantly inhibit
- Pur. Hepatic Lipase + test compound (enzyme activity) (hepatic lipase; triolein substrate 30 μM): 0.08
- Pur. Hepatic Lipase + test compound (enzyme activity) (hepatic lipase; triolein substrate 67 μM): 0.37
- Pur. Hepatic Lipase + test compound (enzyme activity) (hepatic lipase; triolein substrate 100 μM): 0.69
- Pur. Hepatic Lipase + test compound (enzyme activity) (hepatic lipase; triolein substrate 201 μM): 6.36
- Pur. Hepatic Lipase + test compound (enzyme activity) (hepatic lipase; triolein substrate 400 μM): 30.80
- Pur. Hepatic Lipase + test compound (enzyme activity) (hepatic lipase; triolein substrate 1000 μM): 151.60
SMILES: CC1C[C@H](OC(=O)c2ccccc2)C[C@]2(C)C[C@H]3OC(=O)[C@@H](C)[C@H]3CC12 (stereo partly drawn) [2α-benzoyloxy-4,5,7,8,11αH-eudesman-8,12-olide]
